The NIST ThermoML archive (doi:10.1016/j.jct.2018.01.015)

Assay: xn = mol fraction of the nth substance listed
Settings: Gas, rotating-body viscometer for gases

N#N [nitrogen] + O=C=O
Settings | viscosity [mPa·s]
323.22 K, 200.9 kPa, x1 = 0.4996 | 0.0177
323.22 K, 398.6 kPa, x1 = 0.4996 | 0.01773
323.22 K, 399.4 kPa, x1 = 0.2479 | 0.01695
323.22 K, 598 kPa, x1 = 0.4996 | 0.01776
323.22 K, 605 kPa, x1 = 0.2479 | 0.01698
323.22 K, 798.9 kPa, x1 = 0.2479 | 0.01701
323.22 K, 804.9 kPa, x1 = 0.4996 | 0.0178
323.22 K, 996.4 kPa, x1 = 0.4996 | 0.01783
323.22 K, 1001.8 kPa, x1 = 0.2479 | 0.01705
323.22 K, 1196.8 kPa, x1 = 0.2479 | 0.0171
323.22 K, 1198.6 kPa, x1 = 0.4996 | 0.01787
323.26 K, 100.6 kPa, x1 = 1 | 0.0189
323.26 K, 101.5 kPa, x1 = 1 | 0.0189
323.26 K, 200.7 kPa, x1 = 1 | 0.0189
323.26 K, 400.4 kPa, x1 = 1 | 0.01893
323.26 K, 600.8 kPa, x1 = 1 | 0.01896
323.26 K, 800.2 kPa, x1 = 1 | 0.01896
323.26 K, 1000.6 kPa, x1 = 1 | 0.01901
323.26 K, 1000.9 kPa, x1 = 1 | 0.01901
323.27 K, 398.8 kPa, x1 = 1 | 0.01893
323.27 K, 1501.9 kPa, x1 = 1 | 0.01907
323.27 K, 1802.1 kPa, x1 = 1 | 0.01913
373.25 K, 103.3 kPa, x1 = 0.2479 | 0.01923
373.25 K, 107.8 kPa, x1 = 0.4996 | 0.01998
373.25 K, 200.1 kPa, x1 = 0.2479 | 0.01925
373.25 K, 200.7 kPa, x1 = 0.4996 | 0.02
373.25 K, 391.3 kPa, x1 = 0.4996 | 0.02002
373.25 K, 400.6 kPa, x1 = 0.2479 | 0.01928
373.25 K, 598.5 kPa, x1 = 0.4996 | 0.02005
373.25 K, 601.5 kPa, x1 = 0.2479 | 0.0193
373.25 K, 799.5 kPa, x1 = 0.4996 | 0.02008
373.25 K, 802.2 kPa, x1 = 0.2479 | 0.01933
373.25 K, 998.6 kPa, x1 = 0.4996 | 0.02011
373.25 K, 999.6 kPa, x1 = 0.2479 | 0.01937
373.25 K, 1498 kPa, x1 = 0.4996 | 0.0202
373.25 K, 1498.2 kPa, x1 = 0.2479 | 0.01947
373.29 K, 100.8 kPa, x1 = 1 | 0.02102
373.29 K, 201.1 kPa, x1 = 1 | 0.02104
373.29 K, 401 kPa, x1 = 1 | 0.02106
373.29 K, 601 kPa, x1 = 1 | 0.02107
373.29 K, 1000.3 kPa, x1 = 1 | 0.02111
373.29 K, 1500.6 kPa, x1 = 1 | 0.02118
373.29 K, 1807.2 kPa, x1 = 1 | 0.02122
373.57 K, 108.8 kPa, x1 = 0.7498 | 0.02061
373.57 K, 199.2 kPa, x1 = 0.7498 | 0.02064
373.57 K, 399.3 kPa, x1 = 0.7498 | 0.02065
373.57 K, 598.2 kPa, x1 = 0.7498 | 0.02068
373.57 K, 1002.4 kPa, x1 = 0.7498 | 0.02073
373.57 K, 1501.2 kPa, x1 = 0.7498 | 0.02081
373.57 K, 2041.9 kPa, x1 = 0.7498 | 0.02091
423.27 K, 108.9 kPa, x1 = 0.7498 | 0.02271
423.27 K, 200.4 kPa, x1 = 0.7498 | 0.02272
423.27 K, 398.7 kPa, x1 = 0.7498 | 0.02274
423.27 K, 600.7 kPa, x1 = 0.7498 | 0.02275
423.27 K, 1000.3 kPa, x1 = 0.7498 | 0.02281
423.27 K, 1500.1 kPa, x1 = 0.7498 | 0.02287
423.27 K, 2000 kPa, x1 = 0.7498 | 0.02293
423.28 K, 107.7 kPa, x1 = 0.2479 | 0.02144
423.28 K, 109.4 kPa, x1 = 0.4996 | 0.02216
423.28 K, 199.9 kPa, x1 = 0.4996 | 0.02216
423.28 K, 400 kPa, x1 = 0.4996 | 0.02219
423.28 K, 603 kPa, x1 = 0.4996 | 0.02221
423.28 K, 1001.7 kPa, x1 = 0.4996 | 0.02226
423.28 K, 1496.5 kPa, x1 = 0.4996 | 0.02233
423.28 K, 1995 kPa, x1 = 0.4996 | 0.02242
423.29 K, 201.4 kPa, x1 = 0.2479 | 0.02145
423.29 K, 405.1 kPa, x1 = 0.2479 | 0.02148
423.29 K, 601.1 kPa, x1 = 0.2479 | 0.02151
423.29 K, 1000.7 kPa, x1 = 0.2479 | 0.02156
423.29 K, 1495.1 kPa, x1 = 0.2479 | 0.02165
423.29 K, 1998.5 kPa, x1 = 0.2479 | 0.02175
423.33 K, 100.9 kPa, x1 = 1 | 0.02302
423.33 K, 200.9 kPa, x1 = 1 | 0.02303
423.33 K, 400.7 kPa, x1 = 1 | 0.02306
423.33 K, 600.6 kPa, x1 = 1 | 0.02308
423.33 K, 1000.5 kPa, x1 = 1 | 0.02311
423.33 K, 1500.2 kPa, x1 = 1 | 0.02316
423.33 K, 1799.4 kPa, x1 = 1 | 0.02319
473.31 K, 108.7 kPa, x1 = 0.7498 | 0.0247
473.31 K, 199 kPa, x1 = 0.7498 | 0.02471
473.31 K, 399 kPa, x1 = 0.7498 | 0.02472
473.31 K, 602.8 kPa, x1 = 0.7498 | 0.02474
473.31 K, 1003.8 kPa, x1 = 0.7498 | 0.02477
473.31 K, 1501.4 kPa, x1 = 0.7498 | 0.02482
473.31 K, 1996.7 kPa, x1 = 0.7498 | 0.02489
473.32 K, 108.1 kPa, x1 = 0.4996 | 0.02422
473.32 K, 203.7 kPa, x1 = 0.4996 | 0.02423
473.32 K, 400.1 kPa, x1 = 0.4996 | 0.02424
473.32 K, 602.4 kPa, x1 = 0.4996 | 0.02427
473.32 K, 1006.2 kPa, x1 = 0.4996 | 0.02431
473.32 K, 1503 kPa, x1 = 0.4996 | 0.02437
473.32 K, 1991.9 kPa, x1 = 0.4996 | 0.02444
473.34 K, 109.3 kPa, x1 = 0.2479 | 0.02355
473.34 K, 203.1 kPa, x1 = 0.2479 | 0.02356
473.34 K, 395.8 kPa, x1 = 0.2479 | 0.02358
473.34 K, 597.3 kPa, x1 = 0.2479 | 0.02359
473.34 K, 1000.4 kPa, x1 = 0.2479 | 0.02365
473.34 K, 1495.4 kPa, x1 = 0.2479 | 0.02373
473.34 K, 1998.5 kPa, x1 = 0.2479 | 0.02382
473.38 K, 100.7 kPa, x1 = 1 | 0.02494
473.38 K, 200.8 kPa, x1 = 1 | 0.02495
473.38 K, 398.5 kPa, x1 = 1 | 0.02496
473.38 K, 600.9 kPa, x1 = 1 | 0.02497
473.38 K, 1000.7 kPa, x1 = 1 | 0.02499
473.38 K, 1500.6 kPa, x1 = 1 | 0.02503
473.38 K, 1799.3 kPa, x1 = 1 | 0.02505
